# Assay: Binding affinity to SafBP receptor in Zea mays (maize) seedlings by [3H]Saf(R-29148) binding assay
row,Compound,IC50
1,CC1CN(C(=O)C(Cl)Cl)C(C)(C)O1 (centres undefined),120 nM
2,C=CCN(CC=C)C(=O)C(Cl)Cl [DICHLORMID],10 nM
3,O=C(C(Cl)Cl)N1CCOC12CCCCC2,6000 nM
4,CC1(C(Cl)Cl)OCCO1,4400 nM

# Reference: ChEMBL document CHEMBL3045520, “Comparative three-dimensional quantitative structure-activity relationship study of safeners and herbicides” (J Agric Food Chem, 2000)
